Like-named read-outs stand apart in the source and are kept apart here. Residues, ends and D or L forms follow the SMILES beside them.
Columns and labels:
[1] = Desalting and concentration of neutralized mother liquor on flat reverse osmosis membrane; residual rate (Example 2, Table 2); assay type: physicochemical; conditions: pH 5.2, 25°, 40 kg/cm^2 G
Protocol: Next, water was added until the volume became the original volume. Further by repeating similar operation, the system was desalted and concentrated until the volume became half of the original volume.

[2] = Desalting and concentration of raw solution on spiral polyamide reverse osmosis membranes; inhibition rate of each component (Example 1, Table 1); assay type: physicochemical; conditions: for Inhibition Rate: 40 kg/cm^2
Protocol: Desalting and concentration were performed, while cyclizing and mixing a non-permeation solution to and with the raw solution.
From the composition of the permeation liquid exhausted in this case, the inhibition rate of each component was calculated according to the following equation. [formula]
Analysis method: liquid chromatography (α-A(M)PM, α-APM, α-AP), (Cl^-).

[3] = Permeability of valuable matters through reverse osmosis membranes (general findings); conditions: in words; for permeability of valuable matters: reverse osmosis membrane having NaCl inhibition rate of approximately 30% or more
[4] = not told
[5] = cited from earlier work
[6] = Polyamide Type (A), NaCl inhibition rate 50%
[7] = Polysulfone Type (B), NaCl inhibition rate 25%, comparison
[8] = membrane NaCl inhibition rate 15% (control), immediately after permeation started, pH 4.54, 20° C.
[9] = membrane NaCl inhibition rate 15% (control), when concentrated to 2.5 times, 20° C.
[10] = membrane NaCl inhibition rate 30%, immediately after permeation started, pH 4.54, 20° C.
[11] = membrane NaCl inhibition rate 30%, when concentrated to 2.5 times, 20° C.
[12] = membrane NaCl inhibition rate 60%, immediately after permeation started, pH 4.54, 20° C.
[13] = membrane NaCl inhibition rate 60%, when concentrated to 2.5 times, 20° C.
[14] = membrane NaCl inhibition rate 80%, immediately after permeation started, pH 4.54, 20° C.
[15] = membrane NaCl inhibition rate 80%, when concentrated to 2.5 times, 20° C.

| SMILES | Residual Rate [1, 6] [%] | Residual Rate [1, 7] [%] | permeability for reverse osmosis membranes [3] | permeability of valuable matters [3] | permeability through membrane ([2]; in words, conclusion of Example 1) | permeability for reverse osmosis membranes [4] | permeability of valuable matters [4] | Inhibition Rate [2, 8] [%] | Inhibition Rate [2, 9] [%] | Inhibition Rate [2, 10] [%] | Inhibition Rate [2, 11] [%] | Inhibition Rate [2, 12] [%] | Inhibition Rate [2, 13] [%] | Inhibition Rate [2, 14] [%] | Inhibition Rate [2, 15] [%] | stability in aqueous solution ([5]; high temperatures or acidic media) | stability in aqueous solution ([5]; temperatures lower than normal ambient temperatures) |
| --- | --- | --- | --- | --- | --- | --- | --- | --- | --- | --- | --- | --- | --- | --- | --- | --- | --- |
| Cl.N [NH4 Cl] | 50.4 | 32.5 | – | – | – | – | – | – | – | – | – | – | – | – | – | – | – |
| [Cl-].[Na+] [NaCl, sodium chloride] | – | – | – | – | – | – | – | 11.0 | 9.3 | 23.5 | 19.4 | 60.3 | 56.5 | 85.6 | 82.3 | – | – |
| N[C@@H](CC(=O)O)C(=O)N[C@@H](Cc1ccccc1)C(=O)O [α-AP, α-L-aspartyl-L-phenylalanine] (H-Asp-Phe-OH) | 98.7 | 68.9 | low permeability | low | – | – | – | 81.5 | 85.6 | 98.8 | 98.3 | 99.5 | 99.7 | 99.7 | 99.9 | – | – |

Continued, in another order:

| Residual Rate [1, 6] [%] | Residual Rate [1, 7] [%] | permeability for reverse osmosis membranes [3] | permeability of valuable matters [3] | permeability through membrane ([2]; in words, conclusion of Example 1) | permeability for reverse osmosis membranes [4] | permeability of valuable matters [4] | SMILES | Inhibition Rate [2, 8] [%] | Inhibition Rate [2, 9] [%] | Inhibition Rate [2, 10] [%] | Inhibition Rate [2, 11] [%] | Inhibition Rate [2, 12] [%] | Inhibition Rate [2, 13] [%] | Inhibition Rate [2, 14] [%] | Inhibition Rate [2, 15] [%] | stability in aqueous solution ([5]; high temperatures or acidic media) | stability in aqueous solution ([5]; temperatures lower than normal ambient temperatures) |
| --- | --- | --- | --- | --- | --- | --- | --- | --- | --- | --- | --- | --- | --- | --- | --- | --- | --- |
| 97.8 | 60.8 | low permeability | low | – | – | – | COC(=O)C[C@H](N)C(=O)N[C@@H](Cc1ccccc1)C(=O)O [α-A(M)P, methyl ester at the L-aspartic acid β-carboxy residue of α-L-aspartyl-L-phenylalanine] (H-Asp(OMe)-Phe-OH) | – | – | – | – | – | – | – | – | – | – |
| 80.3 | 48.2 | especially high permeability | low | specifically readily permeable | – | – | COC(=O)C[C@H](N)C(=O)N[C@@H](Cc1ccccc1)C(=O)OC [α-A(M)PM, methyl ester of the L-aspartic acid β-carboxyl residue of α-L-aspartyl-L-phenylalanine methyl ester] (H-Asp(OMe)-Phe-OMe) | 56.7 | 59.3 | 82.7 | 84.1 | 91.0 | 92.2 | 93.1 | 93.9 | – | – |
| 98.0 | 60.8 | – | – | – | low permeability | low | COC(=O)[C@H](Cc1ccccc1)NC(=O)[C@@H](N)CC(=O)O [α-APM, α-L-aspartyl-L-phenylalanine methyl ester] (H-Asp-Phe-OMe) | 74.1 | 79.2 | 96.2 | 97.7 | 99.1 | 99.3 | 99.0 | 99.6 | readily undergoes various undesirable reactions | relatively stable |

From patent publication US4822907A, “Method for recovering α-L-aspartyl-L-phenylalanine methyl ester” (Ajinomoto Co., Inc., priority 1986, dated 1989)
